Measurements from patent publication EP2752191A1, “Compositions and methods using hdm2 antagonist and mek inhibitor” (SANOFI, priority 2013, dated 2014).

Experiments:
MV4-11 cells = assay: ATPLite growth inhibition 72 h, dose matrix (Example 1); assay type: cell-based; settings: single agents, or Compound (1) with Compound (6) present at 3.3 uM; 72 h (FIG. 3)
Method: (§1) The combinations of HDM2-p53 inhibitor and MEK inhibitor were examined in a panel of twenty cell lines (Table 2).
(§2) A 36-point combination dose response matrix over a treatment time of seventy-two hours was used. The method by which this screen was performed is described below.
(§3) Cells were thawed from a liquid nitrogen preserved state. Once cells had been expanded and divided at their expected doubling times, cells were seeded in complete media (Table 3) at 100 cells per well in black 1536 tissue culture treated plates. Assay plates were centrifuged for 2 min at 335 x g, incubated at room temperature for 20 min, and incubated at 37° C for 24 hours before treatment.
(§4) ATP levels were used as a measure of cell number (cell growth). At the time of treatment, ATP levels were measured in an untreated set of assay plates (Tzero plates). ATP levels were measured by adding ATPLite (Perkin Elmer) according to manufacturer's instructions. The Tzero plates were read using ultra-sensitive luminescence on Envision Plate Readers. […]
(§5) Growth Inhibition (GI) was used as a measure of cell viability. As described above, ATP levels were measured at the time of dosing (T0) and after 72 hours (T72). The effect of vehicle alone on cell viability was determined by measuring ATP levels at T0 and 72 hours after treatment of cells with vehicle alone (T72). […]

C32 cells = assay: as above; assay type: cell-based; settings: single agents, or Compound (1) with Compound (6) present at 1.1 uM; 72 h (FIG. 2)
Method: as §1, §2, §3, §4, §5

[1] = system: panel of twenty cell lines; assay: HDM2-p53 inhibitor / MEK inhibitor combination screen, ATPLite growth inhibition 72 h, Loewe synergy (Example 1); assay type: cell-based; settings: at an FDR < 5% in some cell lines (FIG. 1)
Method: as §1, §2, §3
ATP levels were used as a measure of cell number (cell growth). At the time of treatment, ATP levels were measured in an untreated set of assay plates (Tzero plates). ATP levels were measured by adding ATPLite (Perkin Elmer) according to manufacturer's instructions. The Tzero plates were read using ultra-sensitive luminescence on Envision Plate Readers. Assay plates receiving treatment were incubated with compound for 72 h at 37° C with 5% CO2. After 72 h, plates were developed for endpoint analysis using ATPLite.
Assay plates were accepted for analysis if they passed the following quality control standards: relative luciferase values were consistent throughout the entire experiment, Z' factor scores were greater than 0.6, untreated/vehicle controls behaved consistently on the plate. The calculation for synergy score is provided below.
Growth Inhibition (GI) was used as a measure of cell viability. As described above, ATP levels were measured at the time of dosing (T0) and after 72 hours (T72). The effect of vehicle alone on cell viability was determined by measuring ATP levels at T0 and 72 hours after treatment of cells with vehicle alone (T72).
GI was calculated by applying the following test and equation: If T < V0 :100*(1-T-V0/V0) [formula] If T ≥ V0 :100*(1-T-V0/V-V0) [formula]
Where T is the signal measure for a test article, V is the vehicle-treated control measure, and V0 is the vehicle control measure at time zero. This formula is derived from the Growth Inhibition calculation used in the National Cancer Institute's NCI-60 high throughput screen, as described on the world wide web at dtp.nci.nih.gov/branches/btb/ivclsp.html. A GI reading of 0% represents no growth inhibition-that is, cells treated with compound had similar levels of ATP as cells treated with vehicle and measured at 72 hours. A GI of 100% represents complete growth inhibition-that is, cells treated with compound had similar levels of ATP as cells treated with vehicle and measured at T0. A GI of 100% where cell numbers have not increased during the treatment period is indicative of a cytostatic effect for compounds reaching a plateau at this effect level. A GI of 200% represents complete death of all cells in the culture well which is indicative of an apoptotic effect.
For each cell line, the dose-response curve was measured with each HDM2-p53 antagonist and each MEK inhibitor as single agents and in pair wise combinations. Using the potency values from the single agent dose-response curves, the compounds were assigned to different groups of similar potency. Multiple doses above and below the EC50 of a given HDM2-p53 antagonist or MEK inhibitor were measured.
In each well of a plate, ATP levels were measured by […] assay as described above. ATP levels are proportional to the number of remaining live cells. […]

90 non-kinase targets = settings: tested at 10 µM; cited from earlier work
217 kinases = settings: tested at 10 µM; cited from earlier work

SMILES	Loewe synergy with both Compound (1) and Compound (2) [1]	also measured
Cn1cnc2c(F)c(Nc3ccc(Br)cc3Cl)c(C(=O)NOCCO)cc21 [Compound (6)]	statistically significant Loewe synergy	effect on MV4-11 cells (growth inhibition) (MV4-11 cells): cytostasis; effect on C32 cells (growth inhibition) (C32 cells): cytostasis
CNS(=O)(=O)Nc1nccc(Cc2c(C)c3ccc(Oc4ncccn4)cc3oc2=O)c1F [Compound (9), N-[3-fluoro-4-[4-methyl-2-oxo-7-(pyrimidin-2-yloxy)-2H-1-benzopyran-3-ylmethyl]pyridin-2-yl]-N'-methylsulfamide]	statistically significant Loewe synergy	–
O=C(NC[C@H](O)CO)c1ccncc1Nc1ccc(I)cc1F [Compound (4), N-((S)-2,3-dihydroxypropyl)-3-(2-fluoro-4-iodo-phenylamino)isonicotinamide]	–	activity against 90 non-kinase targets (90 non-kinase targets): no activity; activity against 217 kinases (217 kinases): no activity
Cc1cnc(Nc2ccc(F)cc2Cl)nc1-c1c[nH]c(C(=O)N[C@H](CO)c2cccc(Cl)c2)c1 [Compound (8), 4-[2-(2-chloro-4-fluorophenylamino)-5-methylpyrimidin-4-yl]-N-[1(S)-(3-chlorophenyl)-2-hydroxyethyl]-1H-pyrrole-2-carboxamide]	statistically significant Loewe synergy	–
O=C(NOCC(O)CO)c1ccc(F)c(F)c1Nc1ccc(I)cc1F (stereo not drawn) [Compound (7), N-(2,3-dihydroxy-propoxy)-3,4-difluoro-2-(2-fluoro-4-iodo-phenylamino)-benzamide]	statistically significant Loewe synergy	–
COc1cc2c(Nc3ccc(Oc4ccccc4)cc3)c(C#N)cnc2cc1OCCCN1CCOCC1 [Compound (10), 6-methoxy-7-[3-(4-morpholinyl)propoxy]-4-(4-phenoxyphenylamino)quinoline-3-carbonitrile]	statistically significant Loewe synergy	–
